Test results reported in ChEMBL document CHEMBL1149724, “Nakahalene and Cytotoxic principles of Formosan Rhamnus Species” (1992).
Converted amounts (≈) assume the structure as drawn.

Assays:
[1] = Cytotoxicity against human PLC/PRF/5 cells; type: functional; settings: read-out: ED50 (the source's name)
[2] = test system: KB; experiment: Cytotoxicity against human KB cells; type: functional; settings: read-out: ED50 (the source's name)

SMILES | EC50 [1] [µg/mL] | EC50 [2] [µg/mL]
Cc1cc(O)c2c(c1)C(=O)c1cccc(O)c1C2=O [CHRYSOPHANOL] | 3.23 (≈ 12.7 µM) | 5.68 (≈ 22.3 µM)
Cc1cc(O)c2c(c1)C(=O)c1cc(O)cc(O)c1C2=O [EMODIN] | 5.91 (≈ 21.9 µM) | 3.46 (≈ 12.8 µM)
Cc1cc(O)c2c(c1)C(=O)c1cc(O[C@@H]3OC[C@](O)(CO)[C@H]3O)cc(O)c1C2=O [FRANGULIN B] | 0.8 (≈ 1.99 µM) | 2.49 (≈ 6.19 µM)
COc1cc(O)c2c(c1)C(=O)c1cc(C)cc(O)c1C2=O [PHYSCION] | 1.44 (≈ 5.07 µM) | 1.55 (≈ 5.45 µM)
